Test results as given in patent US9611278B2 (Merck Sharp & Dohme Corp., priority 2013, dated 2017).

Molecular target: T1, sGC α1/β1 heterodimer stably expressed in CHO-K1 cells (CHO-K1/sGC) (Homo sapiens, UniProt Q02108+Q02153)
T1 construct: expressed in transfected cells
T1 sequence (Q02108 1-690): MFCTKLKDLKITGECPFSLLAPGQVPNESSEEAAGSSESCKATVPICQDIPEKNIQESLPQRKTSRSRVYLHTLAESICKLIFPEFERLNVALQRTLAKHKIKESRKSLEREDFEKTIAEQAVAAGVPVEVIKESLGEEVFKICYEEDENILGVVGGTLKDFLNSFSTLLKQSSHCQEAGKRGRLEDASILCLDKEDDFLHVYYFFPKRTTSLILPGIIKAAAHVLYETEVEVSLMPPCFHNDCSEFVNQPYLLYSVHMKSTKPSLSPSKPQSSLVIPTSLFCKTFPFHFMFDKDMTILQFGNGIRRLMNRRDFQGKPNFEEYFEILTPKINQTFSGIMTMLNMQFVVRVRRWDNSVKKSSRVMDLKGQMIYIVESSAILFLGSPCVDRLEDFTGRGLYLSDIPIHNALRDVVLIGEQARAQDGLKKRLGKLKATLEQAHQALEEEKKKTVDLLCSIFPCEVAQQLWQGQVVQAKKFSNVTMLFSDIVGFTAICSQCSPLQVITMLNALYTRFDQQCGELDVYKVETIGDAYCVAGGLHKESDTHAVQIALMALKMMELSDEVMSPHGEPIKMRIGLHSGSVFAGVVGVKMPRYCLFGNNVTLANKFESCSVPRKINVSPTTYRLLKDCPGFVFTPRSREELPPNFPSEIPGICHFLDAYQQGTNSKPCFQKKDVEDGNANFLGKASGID
T1 sequence (Q02153 1-619): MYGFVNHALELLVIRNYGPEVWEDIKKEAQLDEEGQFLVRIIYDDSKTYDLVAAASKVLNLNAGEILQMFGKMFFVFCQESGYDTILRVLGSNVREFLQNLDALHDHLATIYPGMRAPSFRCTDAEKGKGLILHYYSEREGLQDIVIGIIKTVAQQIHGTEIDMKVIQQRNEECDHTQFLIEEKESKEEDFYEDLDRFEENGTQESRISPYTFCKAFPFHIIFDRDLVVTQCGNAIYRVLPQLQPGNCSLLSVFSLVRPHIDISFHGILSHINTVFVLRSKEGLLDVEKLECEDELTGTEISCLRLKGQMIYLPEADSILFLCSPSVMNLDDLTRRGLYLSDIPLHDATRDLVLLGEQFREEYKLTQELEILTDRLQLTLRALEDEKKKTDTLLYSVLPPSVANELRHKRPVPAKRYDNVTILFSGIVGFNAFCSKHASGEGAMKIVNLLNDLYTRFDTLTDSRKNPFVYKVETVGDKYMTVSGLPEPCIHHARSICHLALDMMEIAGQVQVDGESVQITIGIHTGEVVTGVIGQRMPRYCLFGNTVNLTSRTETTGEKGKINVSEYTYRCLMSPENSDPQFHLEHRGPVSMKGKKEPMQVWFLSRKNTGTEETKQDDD
Assay: Cell-based sGC Functional Assay (CASA Assay)
Conditions: for Emax: CHO-K1, activation as percentage of maximum cGMP production of Compound A (set to 100%), read-out: % Act.; for EC50: inflection point of cGMP generation in CHO-K1/sGC cells, 4P fit, 1 hr at 37° C., read-out: IP
How it was run: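 CHO-K1 cells stably expressing human sGC α1/β1 were incubated with compound for 1 h at 37 °C in buffer with 0.5 mM IBMX and 2.5% DMSO, with or without 1 μM DETA-NO. Intracellular cGMP was read by HTRF and expressed as percentage of maximal activation by reference activator Compound A. Values came from a 4-parameter fit.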

| Compound | Emax | EC50 |
| --- | --- | --- |
| [2H]C([2H])([2H])n1ncc2c(-c3nc(N)c4c(n3)NC(=O)C4(c3nnc(C4CC4)o3)C3CC3)nc(CCC(F)(F)F)nc21 (stereo not shown) [Example 47, 4-Amino-5-cyclopropyl-5-(5-cyclopropyl-1,3,4-oxadiazol-2-yl)-2-(1-(methyl-d3)-6-(3,3,3-trifluoropropyl)-1H-pyrazolo[3,4-d]pyrimidin-4-yl)-5,7-dihydro-6H-pyrrolo[2,3-d]pyrimidin-6-one] | 108% | 2080 nM |
| Cn1ncc2c(-c3nc(N)c4c(n3)NC(=O)C4(c3nnc(C4(C)CC4)o3)C3CC3)nc(CCC(F)(F)C(F)(F)F)nc21 (stereo not shown) [Example 48, 4-Amino-5-cyclopropyl-2-(1-methyl-6-(3,3,4,4,4-pentafluorobutyl)-1H-pyrazolo[3,4-d]pyrimidin-4-yl)-5-(5-(1-methylcyclopropyl)-1,3,4-oxadiazol-2-yl)-5,7-dihydro-6H-pyrrolo[2,3-d]pyrimidin-6-one] | 112% | 399 nM |
| CC(C)c1nnc(C2(C3CC3)C(=O)Nc3nc(-c4nc(CCC(F)(F)C(F)(F)F)nc5c4cnn5C)nc(N)c32)o1 (stereo not shown) [Example 49, 4-Amino-5-cyclopropyl-5-(5-isopropyl-1,3,4-oxadiazol-2-yl)-2-(1-methyl-6-(3,3,4,4,4-pentafluorobutyl)-1H-pyrazolo[3,4-d]pyrimidin-4-yl)-5,7-dihydro-6H-pyrrolo[2,3-d]pyrimidin-6-one] | 113% | 149 nM |
| CC(C)c1nnc(C2(C)C(=O)Nc3nc(-c4nc(CCC(F)(F)C(F)(F)F)nc5c4cnn5C)nc(N)c32)o1 (stereo not shown) [Example 50, 4-Amino-5-(5-isopropyl-1,3,4-oxadiazol-2-yl)-5-methyl-2-(1-methyl-6-(3,3,4,4,4-pentafluorobutyl)-1H-pyrazolo[3,4-d]pyrimidin-4-yl)-5,7-dihydro-6H-pyrrolo[2,3-d]pyrimidin-6-one] | 176% | 84 nM |
| Cn1ncc2c(-c3nc(N)c4c(n3)NC(=O)C4(c3nnc(C4CC4)o3)C3CC3)nc(CC3CC(F)(F)C3)nc21 (stereo not shown) [Example 51, 4-Amino-5-cyclopropyl-5-(5-cyclopropyl-1,3,4-oxadiazol-2-yl)-2-(6-((3,3-difluorocyclobutyl)methyl)-1-methyl-1H-pyrazolo[3,4-d]pyrimidin-4-yl)-5,7-dihydro-6H-pyrrolo[2,3-d]pyrimidin-6-one] | 154% | 119 nM |
| CCC1(c2nnc(C3CC3)o2)C(=O)Nc2nc(-c3nc(CCC(F)(F)C(F)(F)F)nc4c3cnn4C)nc(N)c21 (stereo not shown) [Example 53, 4-Amino-5-(5-cyclopropyl-1,3,4-oxadiazol-2-yl)-5-ethyl-2-(1-methyl-6-(3,3,4,4,4-pentafluorobutyl)-1H-pyrazolo[3,4-d]pyrimidin-4-yl)-5,7-dihydro-6H-pyrrolo[2,3-d]pyrimidin-6-one] | 165% | 280 nM |
| Cn1ncc2c(-c3nc(N)c4c(n3)NC(=O)C4(C)c3cn(C4CC4)nn3)nc(CCC(F)(F)C(F)(F)F)nc21 (stereo not shown) [Example 59, 4-Amino-5-(1-cyclopropyl-1H-1,2,3-triazol-4-yl)-5-methyl-2-(1-methyl-6-(3,3,4,4,4-pentafluorobutyl)-1H-pyrazolo[3,4-d]pyrimidin-4-yl)-5,7-dihydro-6H-pyrrolo[2,3-d]pyrimidin-6-one] | 117% | 29 nM |
| CC(C)n1ncc(C2(C)C(=O)Nc3nc(-c4nc(CCC(F)(F)C(F)(F)F)nc5c4cnn5C)nc(N)c32)n1 (stereo not shown) [Example 61, 4-Amino-5-(2-isopropyl-2H-1,2,3-triazol-4-yl)-5-methyl-2-(1-methyl-6-(3,3,4,4,4-pentafluorobutyl)-1H-pyrazolo[3,4-d]pyrimidin-4-yl)-5,7-dihydro-6H-pyrrolo[2,3-d]pyrimidin-6-one] | 110% | 269 nM |
| [2H]C([2H])([2H])n1ncc2c(-c3nc(N)c4c(n3)NC(=O)C4(C)c3cn(CC)nn3)nc(CCC(F)(F)C(F)(F)F)nc21 (stereo not shown) [Example 64, 4-Amino-5-(1-ethyl-1H-1,2,3-triazol-4-yl)-5-methyl-2-(1-(methyl-d3)-6-(3,3,4,4,4-pentafluorobutyl)-1H-pyrazolo[3,4-d]pyrimidin-4-yl)-5,7-dihydro-6H-pyrrolo[2,3-d]pyrimidin-6-one] | 120% | 114 nM |
| Cn1ncc2c(-c3nc(N)c4c(n3)NC(=O)C4(C)c3cn(CC4CC4)nn3)nc(CCC(F)(F)C(F)(F)F)nc21 (stereo not shown) [Example 65, 4-Amino-5-(1-(cyclopropylmethyl)-1H-1,2,3-triazol-4-yl)-5-methyl-2-(1-methyl-6-(3,3,4,4,4-pentafluorobutyl)-1H-pyrazolo[3,4-d]pyrimidin-4-yl)-5,7-dihydro-6H-pyrrolo[2,3-d]pyrimidin-6-one] | 111% | 169 nM |

Further lines, results first:

| Emax | EC50 | Compound |
| --- | --- | --- |
| 132% | 294 nM | CC(C)Cn1cc(C2(C)C(=O)Nc3nc(-c4nc(CCC(F)(F)C(F)(F)F)nc5c4cnn5C)nc(N)c32)nn1 (stereo not shown) [Example 70, 34-Amino-5-(1-isobutyl-1H-1,2,3-triazol-4-yl)-5-methyl-2-(1-methyl-6-(3,3,4,4,4-pentafluorobutyl)-1H-pyrazolo[3,4-d]pyrimidin-4-yl)-5,7-dihydro-6H-pyrrolo[2,3-d]pyrimidin-6-one] |
| 169% | 491 nM | CCn1ncc(C2(C)C(=O)Nc3nc(-c4nc(CCC(F)(F)C(F)(F)F)nc5c4cnn5C)nc(N)c32)n1 (stereo not shown) [Example 79, 4-Amino-5-(2-ethyl-2H-1,2,3-triazol-4-yl)-5-methyl-2-(1-methyl-6-(3,3,4,4,4-pentafluorobutyl)-1H-pyrazolo[3,4-d]pyrimidin-4-yl)-5,7-dihydro-6H-pyrrolo[2,3-d]pyrimidin-6-one] |
| 90% | 408 nM | Cn1ncc(C2(C)C(=O)Nc3nc(-c4nc(CCC(F)(F)C(F)(F)F)nc5c4cnn5C)nc(N)c32)n1 (stereo not shown) [Example 80, 4-Amino-5-methyl-5-(2-methyl-2H-1,2,3-triazol-4-yl)-2-(1-methyl-6-(3,3,4,4,4-pentafluorobutyl)-1H-pyrazolo[3,4-d]pyrimidin-4-yl)-5,7-dihydro-6H-pyrrolo[2,3-d]pyrimidin-6-one] |
| 102% | 620 nM | CC(C)n1cc(C2(C)C(=O)Nc3nc(-c4nc(CCC(F)(F)C(F)(F)F)nc5c4cnn5C)ncc32)nn1 (stereo not shown) [Example 81] |
| 78% | 509 nM | [2H]C([2H])([2H])n1ncc2c(-c3nc(N)c4c(n3)NC(=O)C4(c3nc(CC(C)(C)C(=O)OCC)cs3)C3CC3)nc(CCC(F)(F)C(F)(F)F)nc21 (stereo not shown) [Example 82, Ethyl 3-(2-(4-amino-5-cyclopropyl-2-(1-(methyl-d3)-6-(3,3,4,4,4-pentafluorobutyl)-1H-pyrazolo[3,4-d]pyrimidin-4-yl)-6-oxo-6,7-dihydro-5H-pyrrolo[2,3-d]pyrimidin-5-yl)thiazol-4-yl)-2,2-dimethylpropanoate] |
| 80% | 797 nM | [2H]C([2H])([2H])n1ncc2c(-c3nc(N)c4c(n3)NC(=O)C4(c3nc(CC(C)(C)C(=O)O)cs3)C3CC3)nc(CCC(F)(F)C(F)(F)F)nc21 (stereo not shown) [Example 83, 3-(2-(4-Amino-5-cyclopropyl-2-(1-(methyl-d3)-6-(3,3,4,4,4-pentafluorobutyl)-1H-pyrazolo[3,4-d]pyrimidin-4-yl)-6-oxo-6,7-dihydro-5H-pyrrolo[2,3-d]pyrimidin-5-yl)thiazol-4-yl)-2,2-dimethylpropanoic acid] |
| 108% | 112 nM | Cn1ccc2c(-c3nc(N)c4c(n3)NC(=O)C4(C)c3ccc(F)cn3)nc(CCC(F)(F)C(F)(F)F)nc21 (stereo not shown) [Example 85, 4-Amino-5-(5-fluoropyridin-2-yl)-5,7′-dimethyl-2′-(3,3,4,4,4-pentafluorobutyl)-5,7-dihydro-6H,7′H-[2,4′-bipyrrolo[2,3-d]pyrimidin]-6-one] |
